According to patent US20100323979A1, “METHODS AND COMPOSITIONS FOR INHIBITING PROLIFERATION OF ANEUPLOID CELLS” (priority 2009, published 2010):

Tests used:
[1] = tested on: trisomic primary MEF cells; experiment: Cell proliferation assay, trisomic MEFs; format: cell-based, mouse; details: for sensitivity in relation to size of the additional chromosome: trisomy 1 versus trisomy 16 or 19
Method: MEF cells were cultured in DMEM supplemented with 10% FBS, 2 mM glutamine, 50 U/ml penicillin, and 50 U/ml streptomycin. […] Lymphoma cells were cultured in IMDM supplemented with 10% FBS, 2 mM glutamine, 50U/ml penicillin, 50 U/ml streptomycin and […] beta-mercaptoethanol. All cells were cultured at 37° C. with 5% CO2 in a humidified environment. In all experiments, cells were counted using a Cellometer Auto T4 automated hemacytometer (Nexcelom). […] After infection with shRNA constructs, GFP+FACS sorted cells were plated at a density of 5×10^5 cells/well in 6-well plates. Cells were treated with AICAR at various concentrations or solvent control then counted at indicated time point.

[2] = tested on: Eμ-Myc;Arf−/− lymphoma cells; experiment: Cell proliferation assay, euploid lymphoma cells; format: cell-based; details: various concentrations, 24 h, FIG. 2A
Method: (§1) All euploid (WT) and aneuploid (Ts) mouse embryonic fibroblast (MEF) lines were established as previously described (Williams, B. R. et al., 2008). MEF cells were cultured in DMEM supplemented with 10% FBS, 2 mM glutamine, 50 U/ml penicillin, and 50 U/ml streptomycin. Eμ-Myc;Arf−/− and Eμ-Myc;p53−/− lymphoma cells were established as previously described (Wendel, H. et al., 2006). Lymphoma cells were cultured in IMDM supplemented with 10% FBS, 2 mM glutamine, 50U/ml penicillin, 50 U/ml streptomycin and […] beta-mercaptoethanol. All cells were cultured at 37° C. with 5% CO2 in a humidified environment. In all experiments, cells were counted using a Cellometer Auto T4 automated hemacytometer (Nexcelom).
(§2) Exponentially growing early passage MEFs were plated at a density of 2×10^5 cells/well in 6-well plates and lymphoma cells were cultured and infected as described previously (Hemann, M. T. et al., 2003). After infection with shRNA constructs, GFP+FACS sorted cells were plated at a density of 5×10^5 cells/well in 6-well plates. Cells were treated with AICAR at various concentrations or solvent control then counted at indicated time point.

[3] = tested on: inducible Hsp70 in trisomic MEFs; experiment: Inducible Hsp70 levels by immunoblotting in trisomic MEFs; format: cell-based, mouse; details: indicated doses, FIG. 4D
Method: (§3) Western blotting was performed as previously described (Dickins, R. A. et al., 2005). Proteins were detected by using the following antibodies: anti-AMPKα (Cell signaling technology), anti-Hsp70 (Stressgen), and anti-β actin (Sigma). Secondary antibodies were horseradish peroxidase-conjugated anti-mouse or anti-rabbit IgG (GE Healthcare; 1:5,000).

[4] = tested on: Eμ-Myc;p53−/− lymphoma cells; experiment: Cell proliferation assay, aneuploid lymphoma cells; format: cell-based
Method: as §1
AMPK-specific shRNA constructs were generated as described previously (Silva, J. M. et al., 2005). Targeting sequences were selected based on BIOPREDsi design (Huesken, D, et al., 2005).
as §2

[5] = tested on: autophagy (LC3, BNIP3) in trisomy 13 and 16 MEFs; experiment: Autophagy markers in trisomic MEFs (LC3 immunoblot, RT-qPCR, GFP-LC3 puncta); format: cell-based, mouse
Method: as §3
For GFP-LC3 fluorescence imaging, wild-type GFP-LC3 and trisomic GFP-LC3 MEF cells were exposed to the indicated drug treatments in phenol red-free DMEM. All fluorescence images were acquired using a Nikon digital sight DS-Qil MC camera on a Nikon Eclipse Ti inverted microscope. All single plane images were acquired and processed using the NIS-Element AR 3.0 software.
Total RNA from MEFs was isolated using the RNeasy Mini Kit (Qiagen) according to the manufacturer's instructions. 1μg RNA was used to generate cDNAs using RETROscript kit (Ambion). qPCR was performed by mixing iQ SYBR Green Supermix (Bio-Rad) with the primers described in Table S2, and amplified using a LightCycler 480 II (Roche). The LightCycler software was used to evaluate gene expression level and normalized to a ribosomal reference gene, rpl19.

Row | SMILES | proliferation of trisomy 1, 13, 16 and 19 cells ([1]; 100 nM, cell number after 3 days, FIG. 3A) | proliferation of trisomic/aneuploid cells versus wild-type (cell number) ([1]; single agent, cell number after 3 days, FIG. 3A/3B) | sensitivity in relation to size of the additional chromosome ([1]; FIG. 3A/3B) | sensitivity of euploid immortalized B-cells (cell count relative to control) [2] | Hsp70 activity (levels of inducible Hsp70) [3] | proliferation after knock-down of AMPK ([4]; Eμ-Myc;p53−/− infected with AMPK-specific shRNA, FIG. 2B) | sensitivity of aneuploid B cells (cell count relative to control) ([4]; Eμ-Myc;p53−/−, various concentrations, 24 h, FIG. 2A) | LC3 incorporation into autophagosomes ([5]; 24 hours after treatment, LC3-GFP puncta, FIG. 4A-4C) | LC3 expression ([5]; FIG. 4A-4B) | Bnip3 expression ([5]; RT-qPCR normalized to rpl19, FIG. 4B) | sensitivity of MEFs carrying trisomies (cell count relative to non-treated control) ([1]; trisomic for chromosome 1, 13, 16 or 19, 0-0.5 mM, 72 or 144 h, FIG. 1)
1 | C=CCNC1=C2C[C@@H](C)C[C@H](OC)[C@H](O)[C@@H](C)/C=C(\C)[C@H](OC(N)=O)[C@@H](OC)/C=C\C=C(/C)C(=O)NC(=CC1=O)C2=O [17-AAG, 17-(Allylamino)-17-demethoxygeldanamycin] | impaired | preferentially inhibited | higher sensitivity |  |  |  |  |  |  |  | 
2 | NC(=O)c1ncn([C@@H]2O[C@H](CO)[C@@H](O)[C@H]2O)c1N [AICAR, 5-aminoimidazole-4-carboxamide riboside] |  |  |  | not sensitive | further increase | proliferate the same in the presence and absence of AICAR | sensitive | further induced | further induced | further induced | sensitive
3 | CCN(CC)CCCC(C)Nc1ccnc2cc(Cl)ccc12 (stereo not drawn) [chloroquine] |  |  | correlated with the size of the additional chromosome |  |  |  |  |  |  |  | 
